Results from the supplement of paper PMC10307832.

Experiments:
Assay in all cases: relative viability (nuclei count vs DMSO), 5 days (fraction); higher = more cells survive
[1] = compound: COC1=CC=C(C=C1)CN2C=CC3=C2C=C(C=C3)C(=O)NO + Cc1cc(Nc2cc(N3CCN(C)CC3)nc(Sc3ccc(NC(=O)C4CC4)cc3)n2)n[nH]1 [Tozasertib] (partner 0.1 µM)
Method in brief: (§1)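 Relative viability equals treated-well nuclei counts divided by vehicle-well nuclei counts. Counts came from 4× images of lung cancer cell lines grown in 1536-well plates for 5 days after pin-tool dosing on the day after seeding. Dosing used one drug alone or a fixed anchor-drug dose plus five library-drug doses (not always all listed) in √10 steps, and values are medians of duplicate plates.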

[2] = compound: C[C@]1(c2nc3c(C(N)=O)cccc3[nH]2)CCCN1 [Veliparib] + C[C@@H](Oc1cc(-c2cnn(C3CCNCC3)c2)cnc1N)c1c(Cl)ccc(F)c1Cl [Crizotinib] (partner 1 µM)
Method in brief: as §1

[3] = compound: COC1=CC=C(C=C1)CN2C=CC3=C2C=C(C=C3)C(=O)NO + COc1cc2c(Oc3ccc(NC(=O)C4(C(=O)Nc5ccc(F)cc5)CC4)cc3F)ccnc2cc1OCCCN1CCOCC1 [Foretinib] (partner 0.25 µM)
Method in brief: as §1

[4] = compound: C[C@]1(c2nc3c(C(N)=O)cccc3[nH]2)CCCN1 [Veliparib] + CC(C)C[C@H](NC(=O)[C@H](Cc1ccccc1)NC(=O)c1cnccn1)B(O)O [Bortezomib] (partner 0.002 µM)
Method in brief: as §1

**Q.** SW 1573 was tested. Which relative viability ([1]; first compound 0.253 µM) did it give?
**A.** The relative viability was 0.233.

**Q.** What about the relative viability ([1]; first compound 0.8 µM) of the same cell line?
**A.** Its relative viability is 0.188.

**Q.** And the relative viability ([1]; first compound 2.53 µM)?
**A.** Its relative viability is 0.206.

**Q.** What about the relative viability ([1]; first compound 8 µM) of the same cell line?
**A.** Its relative viability is 0.157.

**Q.** And the relative viability ([2]; first compound 0.02 µM)?
**A.** Its relative viability is 0.986.

**Q.** And the relative viability ([2]; first compound 0.06325 µM)?
**A.** Its relative viability is 0.629.

**Q.** What about the relative viability ([2]; first compound 0.2 µM) of the same cell line?
**A.** The relative viability was 0.781.

**Q.** What about the relative viability ([2]; first compound 0.6325 µM) of the same cell line?
**A.** Its relative viability is 0.85.

**Q.** And the relative viability ([2]; first compound 2 µM)?
**A.** The relative viability was 0.79.

**Q.** And the relative viability ([3]; first compound 0.253 µM)?
**A.** The relative viability was 0.877.

**Q.** What about the relative viability ([3]; first compound 0.8 µM) of the same cell line?
**A.** The relative viability was 0.865.

**Q.** What about the relative viability ([3]; first compound 2.53 µM) of the same cell line?
**A.** Its relative viability is 0.751.

**Q.** What about the relative viability ([3]; first compound 8 µM) of the same cell line?
**A.** Its relative viability is 0.694.

**Q.** And the relative viability ([4]; first compound 0.02 µM)?
**A.** The relative viability was 0.951.

**Q.** And the relative viability ([4]; first compound 0.06325 µM)?
**A.** Its relative viability is 0.982.

**Q.** And the relative viability ([4]; first compound 0.2 µM)?
**A.** The relative viability was 1.07.

**Q.** And the relative viability ([4]; first compound 0.6325 µM)?
**A.** Its relative viability is 0.862.

**Q.** What about the relative viability ([4]; first compound 2 µM) of the same cell line?
**A.** Its relative viability is 1.06.
